Reference: US7435837B2, “Dihydrobenzofuranyl alkanamine derivatives and methods for using same” (Wyeth, priority 2003, dated 2008)
Counter-ions that a name gives are not always drawn.

For `NCC1Cc2cccc(-c3ccccc3C(F)(F)F)c2O1` (single isomer, unassigned; (-)) (as salt: hydrochloride) [Example 54, (−)-1-{7-[2-(trifluoromethyl)phenyl]-2,3-dihydro-1-benzofuran-2-yl}methanamine], which melting point is on record?
The melting point was 109 to 111 °C.

With `NCC1Cc2cccc(-c3ccc(Cl)cc3)c2O1` (racemic) (as salt: hydrochloride) [Example 76, (±)-1-[7-(4-chlorophenyl)-2,3-dihydro-1-benzofuran-2-yl]methanamine] as the compound, how does the melting point read?
The melting point was 212 to 214 °C.

Which melting point does the source give for `NCC1Cc2cc(F)cc(-c3ccccc3Cl)c2O1` (racemic) (as salt: hydrochloride) [Example 100, (±)-1-[7-(2-chlorophenyl)-5-fluoro-2,3-dihydro-1-benzofuran-2-yl]methanamine] here?
The melting point was > 250 °C (dec.).

With `Cc1c(Cl)cc(C(C)C)c2c1CC(CN)O2` (racemic) (as salt: hydrochloride) [Example 21, (±)-1-(5-chloro-7-isopropyl-4-methyl-2,3-dihydro-1-benzofuran-2-yl)methanamine] as the compound, how does the melting point read?
Its melting point is > 225 °C (dec.).

Which melting point does the source give for `NCC1Cc2cc(Cl)cc(-c3ccccc3Cl)c2O1` (racemic) (as salt: hydrochloride) [Example 87, (±)-1-[5-chloro-7-(2-chlorophenyl)-2,3-dihydro-1-benzofuran-2-yl]methanamine] here?
The melting point was 231 to 234 °C.

With `Cc1ccccc1-c1cc(C#N)cc2c1OC(CN)C2` (racemic) (as salt: hydrochloride) [Example 311, (±)-2-(aminomethyl)-7-(2-methylphenyl)-2,3-dihydro-1-benzofuran-5-carbonitrile] as the compound, how does the melting point read?
Its melting point is 127 to 129 °C.

Which melting point does the source give for `Cc1ccc(-c2cccc3c2OC(CN)C3)cc1` (racemic) (as salt: hydrochloride) [Example 70, (±)-1-[7-(4-methylphenyl)-2,3-dihydro-1-benzofuran-2-yl]methanamine] here?
The melting point was 231 to 232 °C.

With `Cc1ccccc1-c1cccc2c1CC(CN)O2` (single isomer, unassigned; (-)) (as salt: hydrobromid) [Example 6, (−)-1-[4-(2-methylphenyl)-2,3-dihydro-1-benzofuran-2-yl]methanamine] as the compound, how does the melting point read?
The melting point was 231 to 233 °C.

Which melting point does the source give for `Cc1cccc(-c2cccc3c2OC(CN)C3)c1` (single isomer, unassigned; (+)) (as salt: hydrochloride) [Example 42, (+)-1-[7-(3-methylphenyl)-2,3-dihydro-1-benzofuran-2-yl]methanamine] here?
The melting point was 196 to 198 °C.

For `COc1cc2c(c(C(C)(C)C)c1)OC(CN)C2` (single isomer, unassigned; (-)) (as salt: hydrochloride) [Example 115, (−)-1-(7-tert-butyl-5-methoxy-2,3-dihydro-1-benzofuran-2-yl)methanamine], which melting point is on record?
The melting point was 157 to 159 °C.

For `Cc1cc(Cl)ccc1-c1cc(F)cc2c1O[C@@H](CN)C2` (as salt: hydrochloride) [Example 549, {[(2R)-7-(4-chloro-2-methylphenyl)-5-fluoro-2,3-dihydro-1-benzofuran-2-yl]methyl}amine], which melting point is on record?
The melting point was 183 to 185 °C.

For `CC(C)c1ccccc1-c1cccc2c1OC(CN)C2` (single isomer, unassigned; (+)) (as salt: hydrochloride) [Example 62, (+)-[7-(2-isopropylphenyl)-2,3-dihydro-1-benzofuran-2-yl]methylamine], which melting point is on record?
The melting point was 205 to 206 °C.

Which melting point does the source give for `Cc1ccccc1-c1c(Cl)ccc2c1OC(CN)C2` (racemic) (as salt: hydrochloride) [Example 399, (±)-{[6-chloro-7-(2-methylphenyl)-2,3-dihydro-1-benzofuran-2-yl]methyl}amine] here?
The melting point was 204 to 206 °C.

Which melting point does the source give for `CC(C)(C)c1cc(Cl)cc2c1OC(CN)C2` (racemic) (as salt: hydrochloride) [Example 27, (±)-1-(7-tert-butyl-5-chloro-2,3-dihydro-1-benzofuran-2-yl)methanamine] here?
The melting point was 229 to 231 °C.

With `NCC1Cc2cc(Cl)cc(-c3cccc(Cl)c3)c2O1` (racemic) (as salt: hydrochloride) [Example 89, (±)-1-[5-chloro-7-(3-chlorophenyl)-2,3-dihydro-1-benzofuran-2-yl]methanamine] as the compound, how does the melting point read?
The melting point was 195 °C (dec.).

Which melting point does the source give for `CC(C)(C)c1cc(Cl)cc2c1OC(CN)C2` (single isomer, unassigned; (-)) (as salt: hydrobromid) [Example 28, (−)-1-(7-tert-butyl-5-chloro-2,3-dihydro-1-benzofuran-2-yl)methanamine] here?
Its melting point is 219 to 222 °C.

With `NCC1Cc2cccc(-c3cccc(F)c3)c2O1` (single isomer, unassigned; (+)) (as salt: hydrochloride) [Example 131, (+)-1-[7-(3-fluorophenyl)-2,3-dihydro-1-benzofuran-2-yl]methanamine] as the compound, how does the melting point read?
Its melting point is 186 to 188 °C.

With `NCC1Cc2cccc(Cc3ccccc3)c2O1` (racemic) (as salt: hydrochloride) [Example 15, (±)-1-(7-benzyl-2,3-dihydro-1-benzofuran-2-yl)methanamine] as the compound, how does the melting point read?
The melting point was 107 to 111 °C (dec.).

With `NCC1Cc2cccc(-c3ccccc3F)c2O1` (racemic) (as salt: hydrochloride) [Example 50, (±)-1-[7-(2-fluorophenyl)-2,3-dihydro-1-benzofuran-2-yl]methanamine] as the compound, how does the melting point read?
Its melting point is 244 to 246 °C.

For `NCC1Cc2cccc(-c3ccc4ccccc4c3)c2O1` (racemic) (as salt: hydrochloride) [Example 39, (±)-1-[7-(2-naphthyl)-2,3-dihydro-1-benzofuran-2-yl]methanamine], which melting point is on record?
The melting point was 135 to 140 °C.

With `Cc1ccccc1-c1cccc2c1CC(CN)O2` (single isomer, unassigned; (+)) (as salt: hydrobromid) [Example 5, (+)-1-[4-(2-methylphenyl)-2,3-dihydro-1-benzofuran-2-yl]methanamine] as the compound, how does the melting point read?
Its melting point is 232 to 233 °C.

For `Cc1ccc(Cl)cc1-c1cc(F)cc2c1O[C@@H](CN)C2` (as salt: hydrochloride) [Example 548, {[(2R)-7-(5-chloro-2-methylphenyl)-5-fluoro-2,3-dihydro-1-benzofuran-2-yl]methyl}amine], which melting point is on record?
Its melting point is 148 to 150 °C.

With `CC(C)c1ccccc1-c1cccc2c1OC(CN)C2` (racemic) (as salt: hydrochloride) [Example 61, (±)-[7-(2-isopropylphenyl)-2,3-dihydro-1-benzofuran-2-yl]methylamine] as the compound, how does the melting point read?
Its melting point is 202 to 204 °C.

With `NCC1Cc2cccc(-c3ccc(F)cc3)c2O1` (racemic) (as salt: hydrochloride) [Example 73, (±)-1-[7-(4-fluorophenyl)-2,3-dihydro-1-benzofuran-2-yl]methanamine] as the compound, how does the melting point read?
Its melting point is 237 to 240 °C.

Which melting point does the source give for `NCC1Cc2cc(F)cc(-c3ccccc3C(F)(F)F)c2O1` (racemic) (as salt: hydrochloride) [Example 108, (±)-1-{5-fluoro-7-[2-(trifluoromethyl)phenyl]-2,3-dihydro-1-benzofuran-2-yl}methanamine] here?
The melting point was 196 to 198 °C (dec.).

With `NCC1Cc2cccc(-c3ccc(Cl)cc3Cl)c2O1` (single isomer, unassigned; (+)) (as salt: hydrochloride) [Example 150, (+)-1-[7-(2,4-dichlorophenyl)-2,3-dihydro-1-benzofuran-2-yl]methanamine] as the compound, how does the melting point read?
Its melting point is 201 to 204 °C.
